Data set [1] can be described thus: Vitamin B12 absorption (plasma PK) after dosing Sprague-Dawley rats. The class given is in vivo. As to conditions: male rats. Here is the method: Tablets with four types of different ingredients were made as follows: (1) 8.8 mg of vitamin B12, 35 mg of SNAC were weighed, thoroughly mixed and made into a tablet for dosing on rat; (2) 8.8 mg of vitamin B12, 35 mg of SNAC and 5 mg of Capmul PG-8 were weighed, thoroughly mixed and made into a tablet; (3) 8.8 mg of vitamin B12, 35 mg of SNAC and 0.9 mg of Providone were weighed, thoroughly mixed and made into a tablet. Each of the four processes was repeated to produce more tablets.
Male Sprague-Dawley rats (325-350 g) were dosed with vitamin B12 intravenously (0.5 mg/kg) alone, or orally with the tablets made in Example 4 at a dose of 50 mg/kg vitamin B12 alone or in combination with SNAC at 200 mg/kg. Blood samples were collected at 0, 3, 10, 20, 30, 60, 120, 240 and 360 minutes post dosing. Plasma samples were analyzed for B12 by RIA. The model independent PK metrics obtained following B12-SNAC combination were compared to those obtained following B12 alone.

The nature of data set [2]: Serum cyanocobalamin pharmacokinetics after dosing human subjects. The class given is in vivo. As to conditions: healthy male subjects, fasted, single intravenous dose 1 mg cyanocobalamin, 4 subjects. On the procedure:
Sixteen healthy male subjects were randomized to receive one of the following treatments: • (1) Treatment B: a single oral dose of cyanocobalamin/SNAC (5 mg cyanocobalamin/100 mg SNAC) administered in the fasted state as a tablet. (6 subjects); • (2) Treatment C: a single oral dose of cyanocobalamin alone (5 mg cyanocobalamin, VitaLabs, commercial) administered in the fasted state as a tablet. (6 subjects). • (3) Treatment D: a single intravenous dose of cyanocobalamin (1 mg cyanocobalamin) administered in the fasted state. (4 subjects). Each subject received a 1 mL intravenous injection of a 1 mg/mL (1000 μg/mL) solution resulting in a total dose of 1 mg cyanocobalamin.
The subjects were fasted overnight prior to dosing and had no liquids (including water) consumption for at least one hour before and after dosing. The oral forms of cyanocobalamin/SNAC tablets were administered in a single dose as tablets with 50 mL of plain water. Twenty-five blood samples were drawn for cyanocobalamin analyses at the following time points: within 30 minutes pre-dose and at Minutes 2, 5, 10, 20, 30, 40, 50, and at Hours 1, 1.5, 2, 3, 4, 5, 6, 7, 8, 9, 10, 11, 12, 14, 16, 20 and 24 post-dose.
Pharmacokinetic metrics was obtained following a model independent pharmacokinetic analysis of individual cyanocobalamin concentrations. Descriptive statistics was used to summarize the results.

The mark [3] stands for this setting: IV, 0.5 mg/kg vitamin B12, N = 5.
The mark [4] stands for this setting: PO tablet, 50 mg/kg vitamin B12 (alone or with 200 mg/kg SNAC), N = 5.

As to Vitamin B12, the “AUC Mean” value in data set [1] (setting [3]) came to 65.84 µg·min/mL; in data set [1] (setting [4]), 28.72 µg·min/mL. For the same substance, the entries for the “Tmax Mean” value in data set [1] (setting [3]) and in data set [1] (setting [4]) were 4.4 min and 52 min, respectively. Besides, the “Cmax Mean” value was determined as 2150 ng/mL in data set [1] (IV, 0.5 mg/kg vitamin B12, plasma B12 by RIA, N = 5) and 140 ng/mL in data set [1] (PO tablet, 50 mg/kg vitamin B12 (alone or with 200 mg/kg SNAC), plasma B12 by RIA, N = 5). The “Mean Bioavailability” value in data set [1] (PO tablet, 50 mg/kg vitamin B12 (alone or with 200 mg/kg SNAC), versus IV) worked out at 0.42%.

Take cyanocobalamin: in data set [2], the “Mean B12 peak concentration (Cmax)” value was 221.287 ± 80.248 ng/mL and the “mean AUClast (0-24)” value stood at 215.391 ± 44.602 ng·h/mL.
